Experimental data taken from patent US10927123B2, “Modulators of the beta-3 adrenergic receptor useful for the treatment or prevention of disorders related thereto” (Arena Pharmaceuticals, Inc., priority 2016, dated 2021).

Each compound was assayed against Beta-3 Adrenergic Receptor (Homo sapiens (Human), UniProt P13945) (assay: HTRF cAMP antagonist assay (IC50 determination)). Conditions: CHO-K1 cells stably expressing recombinant receptor; antagonism of isoproterenol at EC90; cAMP readout.
Sequence of Beta-3 Adrenergic Receptor (P13945 whole entry, species assumed): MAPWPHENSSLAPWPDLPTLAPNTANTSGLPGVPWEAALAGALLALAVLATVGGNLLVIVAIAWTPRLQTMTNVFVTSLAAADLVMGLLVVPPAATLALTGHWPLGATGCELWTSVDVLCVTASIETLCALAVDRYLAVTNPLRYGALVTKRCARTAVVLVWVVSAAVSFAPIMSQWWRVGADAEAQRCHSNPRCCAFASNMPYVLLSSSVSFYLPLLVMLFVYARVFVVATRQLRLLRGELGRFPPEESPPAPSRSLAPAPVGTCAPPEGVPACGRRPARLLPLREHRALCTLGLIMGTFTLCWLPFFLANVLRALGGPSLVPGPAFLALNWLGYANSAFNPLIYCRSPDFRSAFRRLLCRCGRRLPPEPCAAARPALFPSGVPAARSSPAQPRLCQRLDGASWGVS
Format: cell-based
Procedure, shortened: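 CHO-K1 cells stably expressing the recombinant receptor were preincubated with compound (10-point, 5-fold dilutions; top final typically 10 or 100 μM) in PBS with 1 mM IBMX, then stimulated with isoproterenol at its EC90 for 1 h at room temperature. cAMP was read by HTRF against an on-plate standard curve.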
Work on `CN1CCOc2ncc(S(=O)(=O)N3CCC4(CC3)C[C@@H](NC[C@H](O)COc3cccc(S(=O)(=O)CCO)c3)CO4)cc21` [Compound 151, (S)-1-(3-(2-hydroxyethylsulfonyl)phenoxy)-3-((R)-8-(1-methyl-2,3-dihydro-1H-pyrido[2,3-b][1,4]oxazin-7-ylsulfonyl)-1-oxa-8-azaspiro[4.5]decan-3-ylamino)propan-2-ol] yielded an IC50 of 40.8 nM. Work on `CS(=O)(=O)c1cccc(OC[C@@H](O)CNC2COC3(CCN(S(=O)(=O)c4ccc5c(c4)NC(=O)CO5)CC3)C2)c1` (stereo partly drawn) [Compound 53, 6-(3-((S)-2-hydroxy-3-(3-(methylsulfonyl)phenoxy)propylamino)-1-oxa-8-azaspiro[4.5]decan-8-ylsulfonyl)-2H-benzo[b][1,4]oxazin-3(4H)-one] yielded an IC50 of 23.9 nM. Work on `CCn1cc(S(=O)(=O)N2CCC3(CC2)C[C@@H](NC[C@H](O)COc2cccc(S(=O)(=O)C4CC4)c2)CO3)c(=O)c2cccc(F)c21` [Compound 333, 3-((R)-3-((S)-3-(3-(cyclopropylsulfonyl)phenoxy)-2-hydroxypropylamino)-1-oxa-8-azaspiro[4.5]decan-8-ylsulfonyl)-1-ethyl-8-fluoroquinolin-4(1H)-one] yielded an IC50 of 16.3 nM. In the case of `COc1ccc(S(=O)(=O)N2CCC3(CC2)C[C@H](NC[C@H](O)COc2cccc(S(=O)(=O)C4CC4)c2)CO3)cc1-c1ccc(C2(N)CC2)cc1` [Compound 253, (S)-1-((S)-8-(4′-(1-aminocyclopropyl)-6-methoxybiphenyl-3-ylsulfonyl)-1-oxa-8-azaspiro[4.5]decan-3-ylamino)-3-(3-(cyclopropylsulfonyl)phenoxy)propan-2-ol], the IC50 is reported as 29.1 nM. Work on `COc1c(-c2ccc(CN)cc2)cccc1S(=O)(=O)N1CCC2(CC1)C[C@H](NC[C@H](O)COc1cccc(S(=O)(=O)CC(N)=O)c1)CO2` [Compound 206, 2-(3-((S)-3-((S)-8-(4′-(aminomethyl)-2-methoxybiphenyl-3-ylsulfonyl)-1-oxa-8-azaspiro[4.5]decan-3-ylamino)-2-hydroxypropoxy)phenylsulfonyl)acetamide] yielded an IC50 of 403 nM. Work on `CC(C)S(=O)(=O)c1cccc(OC[C@@H](O)CNC2COC3(CCN(S(=O)(=O)c4ccc5ccccc5c4)CC3)C2)c1` (stereo partly drawn) [Compound 8, (2S)-1-(3-(isopropylsulfonyl)phenoxy)-3-(8-(naphthalen-2-ylsulfonyl)-1-oxa-8-azaspiro[4.5]decan-3-ylamino)propan-2-ol] yielded an IC50 of 12.1 nM. Compound `NCCS(=O)(=O)c1cccc(OC[C@@H](O)CNC2COC3(CCN(S(=O)(=O)c4ccc5ccccc5c4)CC3)C2)c1` (stereo partly drawn) [Compound 22, (2S)-1-(3-(2-aminoethylsulfonyl)phenoxy)-3-(8-(naphthalen-2-ylsulfonyl)-1-oxa-8-azaspiro[4.5]decan-3-ylamino)propan-2-ol] has an IC50 of 302 nM. Work on `O=S(=O)(c1cccc(OC[C@@H](O)CN[C@H]2COC3(CCN(S(=O)(=O)c4cnc5c(F)cccc5c4O)CC3)C2)c1)C1CC1` [Compound 328, 3-((R)-3-((S)-3-(3-(cyclopropylsulfonyl)phenoxy)-2-hydroxypropylamino)-1-oxa-8-azaspiro[4.5]decan-8-ylsulfonyl)-8-fluoroquinolin-4-ol] yielded an IC50 of 35.4 nM. `Cc1c(-c2ccc(C3(N)CC3)cc2)cccc1S(=O)(=O)N1CCC2(CC1)C[C@H](NC[C@H](O)COc1cccc(S(=O)(=O)C3(CO)CC3)c1)CO2` [Compound 198, (S)-1-((S)-8-(4′-(1-aminocyclopropyl)-2-methylbiphenyl-3-ylsulfonyl)-1-oxa-8-azaspiro[4.5]decan-3-ylamino)-3-(3-(1-(hydroxymethyl)cyclopropylsulfonyl)phenoxy)propan-2-ol] gave an IC50 of 62.2 nM. In the case of `O=S(=O)(c1ccc2ncccc2c1)N1CCC2(CC1)C[C@@H](NC[C@H](O)COc1cccc(S(=O)(=O)C3(CO)CCC3)c1)CO2` [Compound 110, (S)-1-(3-(1-(hydroxymethyl)cyclobutylsulfonyl)phenoxy)-3-((R)-8-(quinolin-6-ylsulfonyl)-1-oxa-8-azaspiro[4.5]decan-3-ylamino)propan-2-ol], the IC50 is reported as 68.7 nM. Work on `CCn1cc(S(=O)(=O)N2CCC3(CC2)C[C@@H](NC[C@H](O)COc2cccc(S(=O)(=O)C(C)C)c2)CO3)c(=O)c2ccccc21` [Compound 332, 1-ethyl-3-((R)-3-((S)-2-hydroxy-3-(3-(isopropylsulfonyl)phenoxy)propylamino)-1-oxa-8-azaspiro[4.5]decan-8-ylsulfonyl)quinolin-4(1H)-one] yielded an IC50 of 42.3 nM. `COc1ccc(S(=O)(=O)N2CCC3(CC2)C[C@H](NC[C@H](O)COc2cccc(S(=O)(=O)C(F)(F)CO)c2)CO3)cc1-c1ccc(C2(N)CC2)cc1` [Compound 239, (S)-1-((S)-8-(4′-(1-aminocyclopropyl)-6-methoxybiphenyl-3-ylsulfonyl)-1-oxa-8-azaspiro[4.5]decan-3-ylamino)-3-(3-(1,1-difluoro-2-hydroxyethylsulfonyl)phenoxy)propan-2-ol] was tested, and the IC50 was 30.9 nM. Work on `CN1CC(C)(C)Oc2nc(S(=O)(=O)N3CCC4(CC3)C[C@@H](NC[C@H](O)COc3cccc(S(=O)(=O)C5(CO)CC5)c3)CO4)ccc21` [Compound 288, (S)-1-(3-(1-(hydroxymethyl)cyclopropylsulfonyl)phenoxy)-3-((R)-8-(1,3,3-trimethyl-2,3-dihydro-1H-pyrido[2,3-b][1,4]oxazin-6-ylsulfonyl)-1-oxa-8-azaspiro[4.5]decan-3-ylamino)propan-2-ol] yielded an IC50 of 177 nM. For `CN1CCOc2ncc(S(=O)(=O)N3CCC4(CC3)C[C@@H](NC[C@H](O)COc3cccc(S(=O)(=O)CCCO)c3)CO4)cc21` [Compound 150, 3-(3-((S)-2-hydroxy-3-((R)-8-(1-methyl-2,3-dihydro-1H-pyrido[2,3-b][1,4]oxazin-7-ylsulfonyl)-1-oxa-8-azaspiro[4.5]decan-3-ylamino)propoxy)phenylsulfonyl)propan-1-ol], the IC50 was 227 nM. In the case of `O=S(=O)(c1cccc(-c2ccc(CN3CCC3)cc2)c1)N1CCC2(CC1)C[C@H](NC[C@H](O)COc1cccc(S(=O)(=O)C3(CO)CC3)c1)CO2` [Compound 243, (S)-1-((S)-8-(4′-(azetidin-1-ylmethyl)biphenyl-3-ylsulfonyl)-1-oxa-8-azaspiro[4.5]decan-3-ylamino)-3-(3-(1-(hydroxymethyl)cyclopropylsulfonyl)phenoxy)propan-2-ol], the IC50 is reported as 35 nM. With `Cc1c(S(=O)(=O)N2CCC3(CC2)C[C@@H](NC[C@H](O)COc2cccc(S(=O)(=O)CC(N)=O)c2)CO3)cnc2c1N(C)CCO2` [Compound 276, 2-(3-((S)-3-((R)-8-(1,8-dimethyl-2,3-dihydro-1H-pyrido[2,3-b][1,4]oxazin-7-ylsulfonyl)-1-oxa-8-azaspiro[4.5]decan-3-ylamino)-2-hydroxypropoxy)phenylsulfonyl)acetamide] the IC50 was 1810 nM. `CS(=O)(=O)c1cccc(OC[C@H](O)CNC2COC3(CCN(S(=O)(=O)c4ccc5ccccc5c4)CC3)C2)c1` (stereo partly drawn) [Compound 2, (2R)-1-(3-(methylsulfonyl)phenoxy)-3-(8-(naphthalen-2-ylsulfonyl)-1-oxa-8-azaspiro[4.5]decan-3-ylamino)propan-2-ol] showed an IC50 of 44.8 nM. Compound `CS(=O)(=O)c1cccc(OC[C@@H](O)CNC2COC3(CCN(S(=O)(=O)c4cc5ccccc5o4)CC3)C2)c1` (stereo partly drawn) [Compound 60, (2S)-1-(8-(benzofuran-2-ylsulfonyl)-1-oxa-8-azaspiro[4.5]decan-3-ylamino)-3-(3-(methylsulfonyl)phenoxy)propan-2-ol] has an IC50 of 17.4 nM.
